According to patent US11926634B2, “Processes for the preparation of selective estrogen receptor degraders” (Eli Lilly and Company, priority 2022, dated 2024):

Target: T1, hERα (Homo sapiens, UniProt P03372)
T1 construct: ERα degradation High Content Imaging assays in MCF7 ESR1 Wild Type cells; endogenous in cells; host or cells: MCF7 (ESR1 wild type)
T1 sequence (P03372 1-595): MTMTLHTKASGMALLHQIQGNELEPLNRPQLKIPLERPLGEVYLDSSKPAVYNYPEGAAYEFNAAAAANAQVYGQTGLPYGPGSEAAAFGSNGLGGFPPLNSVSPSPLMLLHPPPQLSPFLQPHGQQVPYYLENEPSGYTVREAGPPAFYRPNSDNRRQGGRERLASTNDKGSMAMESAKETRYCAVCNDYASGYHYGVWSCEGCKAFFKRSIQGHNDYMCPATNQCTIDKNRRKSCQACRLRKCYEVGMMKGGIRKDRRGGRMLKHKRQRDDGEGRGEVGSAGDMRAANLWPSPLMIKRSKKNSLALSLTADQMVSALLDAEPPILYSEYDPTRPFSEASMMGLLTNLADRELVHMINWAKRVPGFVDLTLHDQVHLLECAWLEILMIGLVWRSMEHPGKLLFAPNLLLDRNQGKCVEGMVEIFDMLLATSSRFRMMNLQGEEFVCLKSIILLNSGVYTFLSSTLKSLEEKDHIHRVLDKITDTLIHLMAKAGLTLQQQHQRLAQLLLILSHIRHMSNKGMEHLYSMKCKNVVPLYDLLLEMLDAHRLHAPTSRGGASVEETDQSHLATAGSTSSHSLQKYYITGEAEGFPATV
Test: ERα degradation high content imaging assay in MCF7 cells
Assay type: cell-based
Settings: MCF7 ESR1 Wild Type cells; output % estrogen receptor positive cells; read-out: Relative IC50 (μM), hERα Degradation Cell Assay in MCF7 Cells
Description: Cells were fixed by adding 14% paraformaldehyde (10 μL) for 30 min at RT. The cells were washed once with PBS (20 μL) and incubated with PBS (20 μL per well) containing 0.5% (v/v) TWEEN® 20 for 1 h. Cells were washed with PBS containing 0.05% TWEEN® 20 (2×) and blocked with 3% BSA in PBS containing 0.05% TWEEN® and 0.1% TRITON™ X-100 (20 μL/well) for 1 h at RT. A 1:500 dilution of Primary antibody (20 μL) (ERα (Clone SP1) monoclonal rabbit antibody #RM-9101-S, Thermo Scientific) in 1% BSA in PBS containing 0.05% TWEEN® 20 was added, the plates were sealed and incubated overnight at 4° C. The following day the cells were washed with PBS containing 0.05% TWEEN® 20 (2×) and incubated with secondary antibody ([…]) (1:1000 dilution, Goat anti-rabbit IgM ALEXA FLUOR™ 488) in PBS 1% BSA for 105 min at RT. After incubation plates were washed with PBS (2×20 μL), and PBS (20 μL) containing RNase (Sigma) (50 μg/mL) and 1:1000 propidium iodide dilution was added per well. Plates were sealed and incubated 1 h at RT (preserved from light). The plates were scanned with ACUMEN EXPLORER™ [Laser-scanning fluorescence microplate cytometer manufactured by TTP LABTECH LTD] to measure ERa. Image analysis was based on cellular fluorescent signals for identifying positive cells. Estrogen receptor positive cells were identified by mean intensity. Total intensity at 575-640 nm from propidium iodide/DNA was used to identify individual cells. Assay output was % estrogen receptor positive cells. The IC50 was determine by curve fitting to a four-parameter logistic for each output using GENE DATA™. Raw data (FLU) were plotted as nonlinear regression through […]© tool. Data was analyzed using a 4-parameter nonlinear logistic equation (four-parameter logistic concentration-response curve): Y=bot+[(top-bot)/1+(x/IC50) slope] where Y=% inhibition, x=concentration yielding y % inhibition, Bottom=minimum value of y attained by curve, Top=maximum value of y attained by curve and Slope=steepness of curve at IC50. % Inh=[(median Max−x/median Max−median Min)]×100.

| SMILES | DC50 | IC50 |
| --- | --- | --- |
| CCOC(COc1ccc(C(=O)c2c(-c3ccc(C(F)(F)F)cc3F)cnc3cc(O)ccc23)cc1)OCC | > 2 µM | – |
| O=C(c1ccc(OCCN2CC(CF)C2)cc1)c1c(Cl)cnc2cc(O)ccc12 | 0.126 ± 0.0442 µM | – |
| O=C(c1ccc(OCCN2CC(CF)C2)cc1)c1c(-c2ccc(C(F)(F)F)cc2F)cnc2cc(O)ccc12 | – | 0.00216 µM |
| CCOC(COc1ccc(C(O)c2c(-c3ccc(C(F)(F)F)cc3F)cnc3cc(O)ccc23)cc1)OCC (stereo not shown) | > 2 µM | – |
| Oc1ccc2c(C(O)c3ccc(OCCN4CC(CF)C4)cc3)c(-c3ccc(C(F)(F)F)cc3F)cnc2c1 (stereo not shown) | 0.278 ± 0.126 µM | – |
| CCOC(COc1ccc(C2Oc3cc(C(F)(F)F)ccc3-c3cnc4cc(O)ccc4c32)cc1)OCC (stereo not shown) | > 2 µM | – |
| O=CCOc1ccc(C2Oc3cc(C(F)(F)F)ccc3-c3cnc4cc(O)ccc4c32)cc1 (stereo not shown) | > 2 µM | – |
